The values below come from patent publication US12115209B2, “ROMO1-derived antimicrobial peptides including lysine substitution and variants thereof” (KOREA UNIVERSITY RESEARCH AND BUSINESS FOUNDATION, priority 2019, dated 2024).

No end group written: not given here.

One data set relates to CRPA. Nature of the data set: Minimum bactericidal concentration (MBC) assay. In kind it is cell-based. To be noted: Tables 11-21, no unit printed.
Data set [1] deals with Acinetobacter baumannii (ATCC 19606). In kind it is cell-based. To be noted: ATCC 19606, 4 h. As to the method: (§1) Specifically, each type of bacteria was cultured in 3% (w/v) TSB (tryptic soy broth) liquid medium at 37° C. and 200 rpm for 4 hours, and then further cultured under the same conditions for 3 hours to a concentration of 5×10^6 CFU/ml. Strain solutions were prepared by diluting each of the further cultured strains with SP buffer to a final concentration of 2×10^5 CFU/ml.
(§2) Then, the KU-5878 peptide at varying concentrations (0 μg/ml to 300 μg/ml) was dispensed into each well of a 96-well microplate, and 100 μl (1×10^5 CFU/ml) of each of the prepared strain solutions was added thereto, mixed therewith, and allowed to react with the peptide in an incubator at 37° C. for 1 hour.
(§3) In addition, 10 μl of each reaction solution of the peptide and the strain was plated on the TS agar plate at a constant size, and incubated in an incubator at 37° C. for 18 hours, and then colony formation on the plate was checked. The minimum bactericidal concentration was defined as the minimum concentration of the peptide at which no colony was formed, and the experimental results are shown in Table 2 below.

In data set [2] the test system is Bacillus subtilis (ATCC 6633). It is filed as cell-based. To be noted: ATCC 6633, 4 h. As to the method: as §1, §2, §3
The test system of data set [3] is Enterobacter aerogenes (ATCC 13048). In kind it is cell-based. To be noted: ATCC 13048, 4 h. As to the method: as §1, §2, §3
The test system of data set [4] is Enterococcus faecalis (ATCC 19433). It is filed as cell-based. To be noted: ATCC 19433, 4 h. As to the method:
as §1, §2, §3

Data set [5] has as its system Enterococcus faecium (ATCC 19434). It is filed as cell-based. To be noted: ATCC 19434, 4 h. As to the method: as §1, §2, §3
Data set [6] has as its system Escherichia coli (ATCC 25922). In kind it is cell-based. To be noted: ATCC 25922, 4 h. As to the method:
as §1, §2, §3

Data set [7] concerns Klebsiella pneumoniae (ATCC 13883). In kind it is cell-based. To be noted: ATCC 13883, 4 h. As to the method:
as §1, §2, §3

The subject of data set [8] is Streptomyces sindenensis (ATCC 12392). It is filed as cell-based. To be noted: ATCC 12392, 4 h. As to the method:
as §1, §2, §3

For data set [9], the system named is Staphylococcus aureus, Pseudomonas aeruginosa, Klebsiella pneumoniae and Acinetobacter baumannii. Nature of the data set: Survival rate of mice injected with gram-positive or gram-negative bacteria. It is filed as in vivo, mice (C57BL/6). To be noted: mice injected with gram-positive or gram-negative bacteria (FIG. 3). An excerpt: Following Example 2-2, in order to evaluate the antibacterial activity of the KU-5878 peptide in vivo, Staphylococcus aureus as gram-positive bacteria, Pseudomonas aeruginosa, Klebsiella pneumoniae and Acinetobacter baumannii as gram-negative bacteria, and multidrug-resistant Pseudomonas aeruginosa, methicillin-resistant Staphylococcus aureus, multidrug-resistant Klebsiella pneumoniae and multidrug-resistant Acinetobacter baumannii as multidrug-resistant bacteria were selected, and the following experiment was performed.
The experimental method is as described in Example 2-2 above. For a positive group, each type of the bacteria was injected into mice, and after 24 hours, 30 mg/kg of imipenem, a carbapenem-based antibiotic, was injected intraperitoneally (IP), and then the same amount of imipenem was administered intraperitoneally a total of 4 times at 12-hour intervals. The survival rates of each control group and the experimental group were measured at 24-hour intervals.

For data set [10], the system named is Human vascular endothelial cells (HUVECs). Nature of the data set: Toxicity to human vascular endothelial cells (MTT). It is filed as cell-based. To be noted: 0 μg/ml to 300 μg/ml. As to the method: PBS was used as a control.
The HUMEC medium was replaced with fresh medium, and KU-5878, melittin or magainin 2 were dispensed at various concentrations (0 μg/ml to 300 μg/ml). Then, each well was treated with 100 μl of MTT reagent and incubated at 37° C. for 2 hours. Then, the medium and the peptide were carefully removed so as not to separate the cells, and 100 μl of DMSO (dimethyl sulfoxide) was added to each well, and the absorbance at a wavelength of 570 nm was measured using a spectrophotometer. Relative cell viability was calculated as a percentage of the viability of untreated control cells.

Sequence KTMMQSGGTFGTFMAIGMGIR [KU-5878] displayed an MBC CRPA against CRPA of 110 µg/mL. Also, the “MBC value” came out at 100 µg/mL in data set [1]; 90 µg/mL in [2]; 90 µg/mL in data set [3]; 85 µg/mL in [4]; 85 µg/mL in data set [5]; 85 µg/mL in data set [6]. Besides, the “MBC value” in [7] amounted to 100 µg/mL; in [8], 95 µg/mL. For the same sequence, in [9], the survival rate is recorded as 60%. Besides, the “toxicity to the HUVECs (relative cell viability, MTT)” value in [10] is reported as “very low toxicity”.
